Peptide text beside a SMILES is read from it.
Legend:
SIRT2 = SIRT2 transcription, semi-quantitative RT-PCR in human epidermal progenitors; format: cell-based; details: 72 h
Experimental: (§1) Human neonatal epidermal progenitors (Thermo Fisher Scientific, NY) were seeded in 6-well plates at a density of 2×10^5 cells/well. Each well received 2 ml of Epilife media containing 60 μM calcium chloride (Thermo Fisher Scientific, NY). Plates were incubated in a humidified chamber at 37 degrees Celsius and 5 percent CO2. Twenty-four hours later, cells were treated with various concentrations of oxyresveratrol or decapeptide-12 dissolved in PBS containing 5 percent DMSO. Control wells received vehicle only (5 percent DMSO and PBS). Final concentration of DMSO in each well was 0.05 percent.
(§2) After a 72 hour incubation period, cells were trypsinized and total RNA extracted, using RNeasy kit (Qiagen, Valencia, Calif.) according to the manufacturer's protocol.
(§3) RNA concentration was determined using nanodrop (Thermo fisher scientific, NY). Two μg of total RNA were used to synthesize cDNA using oligo dT primers and TaqMan reverse transcription reagents (Thermo fisher scientific, NY). The reaction was carried out in DNA Engine Peltier Thermal Cycler (Bio-Rad, Hercules, Calif.). The annealing temperature was 25 degrees Celsius for 10 minutes, followed by first strand synthesis at 48 degrees Celsius for 1 hour, and heat inactivation at 95 degrees Celsius for 5 minutes.
(§4) The SIRT1-7 primers (table 1) were designed using Primer3. The semi-quantitative PCR reactions were performed on a DNA Engine Peltier Thermo Cycler (Bio-Rad, Hercules, Calif.). PCR was carried under the following conditions: denaturation at 94 degrees Celsius for 2 minutes and primer extension at 54 degrees Celsius for 30 seconds in 34 cycles for SIRT 1-7 and the housekeeping gene 18S.
(§5) Samples were run and resolved on a 1.5 percent agarose gel containing 0.5 μg/ml of ethidium bromide and imaged using the FluorChem HD2 Imaging System (Protein simple, San Jose, Calif.). Densitometry analysis was carried out using the AlphaEase FC software (Protein simple, San Jose, Calif.). Intensity ratios were calculated as the intensity value for each gene divided by the intensity value of the internal control gene 18S.
(§6) The effect of the decapeptides P4, P4A, P4B, and P4C upon the transcription levels of sirtuins 1-7 was evaluated. Table 4 summarizes transcription levels for all four decapeptides with the corresponding genes, at tested concentrations of: 10, 30, 50, 100, and 300 (all in μM).

fibroblasts = assay: MTT cell proliferation assay, fibroblasts; format: cell-based, human; details: 100 μM, 72-hour incubation
Experimental: (§7) Proliferation rates for three human cell lines (epidermal progenitors, melanoblasts, and fibroblasts) were determined using a TACS® MTT Cell Proliferation Kit. Cells were seeded at 2.5×10^4/well in 96-well plates in a humidified atmosphere with 5 percent CO2 at 37 degrees Celsius. Twenty-four hours later, the decapeptides were added to the corresponding wells at varying concentrations and incubated for 72 hours. The remainder of the procedure was performed following the manufacturer's protocol.

[1] = MTT cell proliferation assay, fibroblasts; format: cell-based, human; details: human, MTT, 72 h, read-out: fibroblast proliferation rate after 72 hours
Experimental: as §7

SIRT1 = SIRT1 transcription, semi-quantitative RT-PCR in human epidermal progenitors; format: cell-based; details: 72 h
Experimental: as §1, §2, §3, §4, §5, §6

melanoblasts = assay: MTT cell proliferation assay, melanoblasts; format: cell-based, human; details: 100 μM, 72-hour incubation
Procedure, shortened: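 Human fibroblasts and melanoblasts were seeded at 2.5×10^4/well at 37 degrees Celsius, 5 percent CO2. Proliferation was read by MTT kit per manufacturer's protocol.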

SIRT4 = SIRT4 transcription, semi-quantitative RT-PCR in human epidermal progenitors; format: cell-based; details: 72 h
Experimental: as §1, §2, §3, §4, §5, §6

With CCCCCCCCCCCCCCCC(=O)N[C@@H](Cc1ccc(O)cc1)C(=O)N[C@@H](CCCNC(=N)N)C(=O)N[C@@H](CO)C(=O)N[C@@H](CCCNC(=N)N)C(=O)N[C@@H](CCCCN)C(=O)N[C@@H](Cc1ccc(O)cc1)C(=O)N[C@@H](CO)C(=O)N[C@@H](CO)C(=O)N[C@@H](Cc1c[nH]c2ccccc12)C(=O)N[C@@H](Cc1ccc(O)cc1)C(N)=O [P4A, Palmitoyl-YRSRKYSSWY-amide] (HELM PEPTIDE1{[CCCCCCCCCCCCCCCC(=O)[*:2]].Y.R.S.R.K.Y.S.S.W.Y.[am]}$$$$V2.0) the “SIRT2 transcription increase relative to control” value (SIRT2; 10 μM) was 14 ± 1%, the “SIRT2 transcription increase relative to control” value (SIRT2; 30 μM) was 15 ± 1% and the “SIRT2 transcription increase relative to control” value (SIRT2; 50 μM) was 6 ± 3%. For the same molecule, the “SIRT2 transcription increase relative to control” value (SIRT2; 100 μM) was 48 ± 1%, the “SIRT2 transcription increase relative to control” value (SIRT2; 300 μM) was 30 ± 5% and the “reduction in the proliferation rate” value (fibroblasts) was 3%. For the same molecule, the viability at 72 h, 3 µM ([1]; 3 μM) was 100%, the viability at 72 h, 10 µM ([1]; 10 μM) was 99 ± 1% and the viability at 72 h, 30 µM ([1]; 30 μM) was 98 ± 1%. The viability at 72 h, 50 µM ([1]; 50 μM) was 98 ± 1%, the viability at 72 h, 100 µM ([1]; 100 μM) was 97 ± 2% and the viability at 72 h, 300 µM ([1]; 300 μM) was 97 ± 2%. The viability at 72 h, 500 µM ([1]; 500 μM) was 96 ± 2%, the viability at 72 h, 1000 µM ([1]; 1000 μM) was 95 ± 2% and the “SIRT1 transcription increase relative to control” value (SIRT1; 10 μM) was 18 ± 2%. The “SIRT1 transcription increase relative to control” value (SIRT1; 30 μM) was 19 ± 1%, the “SIRT1 transcription increase relative to control” value (SIRT1; 50 μM) was 42 ± 5% and the “SIRT1 transcription increase relative to control” value (SIRT1; 100 μM) was 144 ± 5%. The “SIRT1 transcription increase relative to control” value (SIRT1; 300 μM) was 184 ± 2%, the “reduction in the proliferation rate” value (melanoblasts) was 3% and the “SIRT4 transcription increase relative to control” value (SIRT4; 10 μM) was 16 ± 1%. The “SIRT4 transcription increase relative to control” value (SIRT4; 30 μM) was 16 ± 1%, the “SIRT4 transcription increase relative to control” value (SIRT4; 50 μM) was 9 ± 4% and the “SIRT4 transcription increase relative to control” value (SIRT4; 100 μM) was 98 ± 12%. The “SIRT4 transcription increase relative to control” value (SIRT4; 300 μM) was 65 ± 1%.
